Each structure is given as a SMILES string. pEC50: −log10 of the molar value.

A word on the pEC50: it is the EC50 on a negative log10 scale, so that one unit is a factor of ten.

The first assay deals with HCV 1b genotype. The assay can be described thus: HCV Replicon assay (HCV 1b genotype). It counts as cell-based. Conditions: Hepatitis C virus; HCV 1b genotype replicon; Effective 50% inhibitory concentration; read-out: EC50. Here is the method:
An HCV Replicon assay was utilized in the present disclosure, and was prepared, conducted and validated as described in commonly owned PCT/US2006/022197 and in O'Boyle et al., Antimicrob. Agents Chemother., 49(4):1346-1353 (April 2005). Assay methods incorporating luciferase reporters have also been used as described (Apath.com).
HCV-neo replicon cells and replicon cells containing resistance substitutions in the NS5A region were used to test the currently described family of compounds. The compounds were determined to have differing degrees of reduced inhibitory activity on cells containing mutations vs. the corresponding inhibitory potency against wild-type cells. Thus, the compounds of the present disclosure can be effective in inhibiting the function of the HCV NS5A protein and are understood to be as effective in combinations as previously described in application PCT/US2006/022197 and commonly owned WO 04/014852. It should be understood that the compounds of the present disclosure can inhibit multiple genotypes of HCV. […] In one embodiment, compounds of the present disclosure are inhibitory versus 1a, 1b, 2a, 2b, 3a, 4a, and 5a genotypes. EC50 values against HCV 1b are as follows.
Take `CC[C@H](NC(=O)OC)C(=O)N1[C@@H]2C[C@@H]2C[C@H]1c1nc(Cl)c(-c2ccc(-c3ccc(-c4[nH]c([C@@H]5C[C@H]6C[C@H]6N5C(=O)[C@@H](NC(=O)OC)C5CCOCC5)nc4Cl)cc3)cc2)[nH]1` [Example V9]: the negative logarithm of the EC50 (pEC50) is 11.57.

The assay is the same for the next values; noted with them: Hepatitis C virus; HCV 1b genotype replicon; range class; read-out: EC50-Range.
In the case of `COC(=O)N[C@H](C(=O)N1[C@@H]2C[C@@H]2C[C@H]1c1nc(-c2ccc(-c3ccc(-c4nc([C@@H]5C[C@H]6C[C@H]6N5C(=O)[C@@H](NC(=O)OC)[C@H]5CCCOC5)[nH]c4Cl)cc3)cc2)c(Cl)[nH]1)[C@H]1CCCOC1` [ZY2, dimethyl(R,1S,1′S)-2,2′-((1R,1′R,3S,3′S,5R,5′R)-3,3′-(4,4′-(biphenyl-4,4′-diyl)bis(5-chloro-1H-imidazole-4,2-diyl))bis(2-azabicyclo[3.1.0]hexane-3,2-diyl))bis(2-oxo-1-((R)-tetrahydro-2H-pyran-3-yl)ethane-2,1-diyl)dicarbamate], the pEC50 was 11.00 to 12.00.
With `COC(=O)NC(C(=O)N1[C@@H]2C[C@@H]2C[C@H]1c1nc(-c2ccc(-c3ccc(-c4nc([C@@H]5C[C@H]6C[C@H]6N5C(=O)[C@H](NC(=O)OC)[C@H]5CCCOC5)[nH]c4Cl)cc3)cc2)c(Cl)[nH]1)[C@@H]1CCCOC1` (stereo partly drawn) [ZY3, dimethyl(R,1R,1′R)-2,2′-((1R,1′R,3S,3′S,5R,5′R)-3,3′-(4,4′-(biphenyl-4,4′-diyl)bis(5-chloro-1H-imidazole-4,2-diyl))bis(2-azabicyclo[3.1.0]hexane-3,2-diyl))bis(2-oxo-1-((R)-tetrahydro-2H-pyran-3-yl)ethane-2,1-diyl)dicarbamate], the pEC50 was 11.00 to 12.00.
For the compound `C=CCc1cc([C@@H]2CCCN2C(=O)[C@@H](NC(=O)OC)C2CCOCC2)[nH]c1-c1ccc(-c2ccc(-c3cnc([C@@H]4CCCN4C(=O)[C@@H](NC(=O)OC)C4CCOCC4)[nH]3)cc2)cc1` [OL16], the negative-log EC50 (pEC50) is 10.00 to 11.00.
Still for that read-out and setting: the value for `COC(=O)N[C@@H](C(=O)N1[C@@H]2C[C@@H]2C[C@H]1c1nc(-c2ccc(-c3ccc(-c4nc([C@@H]5C[C@H]6C[C@H]6N5C(=O)[C@H](NC(=O)OC)[C@@H]5CCCOC5)[nH]c4Cl)cc3)cc2)c(Cl)[nH]1)[C@@H]1CCCOC1` [ZY4, dimethyl(S,1R,1′R)-2,2′-((1R,1′R,3S,3′S,5R,5′R)-3,3′-(4,4′-(biphenyl-4,4′-diyl)bis(5-chloro-1H-imidazole-4,2-diyl))bis(2-azabicyclo[3.1.0]hexane-3,2-diyl))bis(2-oxo-1-((S)-tetrahydro-2H-pyran-3-yl)ethane-2,1-diyl)dicarbamate] was 11.00 to 12.00; that for `COC(=O)N[C@H](C(=O)N1[C@@H](C)CC[C@H]1c1nc(-c2ccc(-c3ccc4c(ccc5[nH]c([C@@H]6CC[C@H](C)N6C(=O)[C@@H](NC(=O)OC)C6CCOCC6)nc54)c3)cc2)c(Cl)[nH]1)C1CCOCC1` [JLR-5] was 11.00 to 12.00; that for `CC[C@H](NC(=O)OC)C(=O)N1[C@@H]2C[C@@H]2C[C@H]1c1nc(Cl)c(-c2ccc(-c3ccc(-c4[nH]c([C@@H]5C[C@H]6C[C@H]6N5C(=O)[C@H](CC)NC(=O)OC)nc4Cl)cc3)cc2)[nH]1` [Example V3] was 11.00 to 12.00.
In the case of `COC(=O)N[C@H](C(=O)N1[C@@H](C)CC[C@H]1c1ncc(-c2ccc(-c3ccc(-c4[nH]c([C@@H]5CC[C@H](C)N5C(=O)[C@@H](NC(=O)OC)C(C)C)nc4Cl)cc3)cc2)[nH]1)C(C)C` [GW2], the negative-log EC50 (pEC50) was 11.00 to 12.00.
Take `COC(=O)N[C@@H](C(=O)N1[C@@H]2C[C@@H]2C[C@H]1c1nc(-c2ccc(-c3ccc(-c4nc([C@@H]5C[C@H]6C[C@H]6N5C(=O)[C@H](NC(=O)OC)[C@@H]5CCCOC5)[nH]c4Cl)cc3)cc2)c[nH]1)[C@H]1CCCOC1` [ZY5]: the pEC50 was 11.00 to 12.00.
Still for that read-out and setting: next, `COC(=O)N[C@H](C(=O)N1C2C[C@@H]2C[C@H]1c1nc(-c2ccc(-c3ccc(-c4nc([C@@H]5CC6C[C@H]6N5C(=O)[C@@H](NC(=O)OC)C5CCOCC5)[nH]c4C#N)cc3)cc2)c[nH]1)C1CCOCC1` (stereo partly drawn) [DSTL-12]: 10.00 to 11.00; `COC(=O)N[C@H](C(=O)N1[C@@H]2C[C@@H]2C[C@H]1c1nc(-c2ccc(-c3ccc(-c4nc([C@@H]5C[C@H]6C[C@H]6N5C(=O)[C@@H](NC(=O)OC)C5CCOCC5)[nH]c4F)cc3)cc2)c[nH]1)C1CCOCC1` [DSTL-6]: 11.00 to 12.00; `COC(=O)N[C@H](C(=O)N1CCC[C@H]1c1ncc(-c2ccc(-c3ccc(-c4[nH]c([C@@H]5CCCN5C(=O)[C@@H](NC(=O)OC)C(C)C)nc4C4CC4)cc3)cc2)[nH]1)C(C)C` [OL7]: 11.00 to 12.00.
Same read-out and setting: the value for `COC(=O)N[C@H](C(=O)N1[C@@H]2C[C@@H]2C[C@H]1c1nc(-c2ccc(-c3ccc(-c4nc([C@@H]5C[C@H]6C[C@H]6N5C(=O)[C@@H](NC(=O)OC)C5CCOCC5)[nH]c4F)cc3)cc2)c(F)[nH]1)C1CCOCC1` [DSTL-7] was 11.00 to 12.00; that for `COC(=O)N[C@H](C(=O)N1[C@@H]2C[C@@H]2C[C@H]1c1nc(-c2ccc(-c3ccc(-c4nc([C@@H]5C[C@H]6C[C@H]6N5C(=O)[C@@H](NC(=O)OC)[C@@H]5CCCOC5)[nH]c4Cl)cc3)cc2)c(Cl)[nH]1)[C@@H]1CCCOC1` [ZY1, dimethyl(S,1S,1′S)-2,2′-((1R,1′R,3S,3′S,5R,5′R)-3,3′-(4,4′-(biphenyl-4,4′-diyl)bis(5-chloro-1H-imidazole-4,2-diyl))bis(2-azabicyclo[3.1.0]hexane-3,2-diyl))bis(2-oxo-1-((S)-tetrahydro-2H-pyran-3-yl)ethane-2,1-diyl)dicarbamate] was 11.00 to 12.00; that for `CC[C@H](NC(=O)OC)C(=O)N1[C@@H]2C[C@@H]2C[C@H]1c1nc(Cl)c(-c2ccc(-c3ccc(-c4[nH]c([C@@H]5C[C@H]6C[C@H]6N5C(=O)[C@@H](NC(=O)OC)C5CCOCC5)nc4Cl)cc3)cc2)[nH]1` [Example V9] was 11.00 to 12.00.
Take `C=CCc1nc([C@@H]2CCCN2C(=O)[C@@H](NC(=O)OC)C(C)C)[nH]c1-c1ccc(-c2ccc(-c3cnc([C@@H]4CCCN4C(=O)[C@@H](NC(=O)OC)C(C)C)[nH]3)cc2)cc1` [OL15]: the pEC50 is 11.00 to 12.00.
For the compound `CC[C@H](NC(=O)OC)C(=O)N1[C@@H]2C[C@@H]2C[C@H]1c1ncc(-c2ccc(-c3ccc(-c4[nH]c([C@@H]5C[C@H]6C[C@H]6N5C(=O)[C@H](CC)NC(=O)OC)nc4Cl)cc3)cc2)[nH]1` [Example V1], the pEC50 is 11.00 to 12.00.
On the same count and under the same terms, next, `COC(=O)NC(C(=O)N1[C@@H]2C[C@@H]2C[C@H]1c1nc(-c2ccc(-c3ccc(-c4[nH]c([C@@H]5C[C@H]6C[C@H]6N5C(=O)C(NC(=O)OC)[C@H]5C[C@@H](C)O[C@@H](C)C5)nc4Cl)cc3)cc2)c[nH]1)[C@H]1C[C@@H](C)O[C@@H](C)C1` (stereo partly drawn) [OL6]: 11.00 to 12.00.

(Values after patent US8377980B2, “Hepatitis C virus inhibitors” (Bristol-Myers Squibb Company, priority 2009, dated 2013).)
